In EPA's ToxValDB 9.5 (doi:10.2903/j.efsa.2013.3147):

Legend:
Canidae = settings: oral, Dog Other, clinical chemistry

## COc1cc(C)c(C(=O)c2c(OC)ncc(Cl)c2C)c(OC)c1OC [Pyriofenone]
Anas platyrhynchos; reproductive, reproduction
  NOAEL: 119 mg/kg-day
Anas platyrhynchos; short-term, oral, feed, mortality
  LC50: > 1290 mg/kg-day
Canidae; chronic, duration: 1 years
  NOAEL: 13.7 mg/kg-day
Canidae; subchronic, duration: 90 days
  NOAEL: 15 mg/kg-day
Colinus virginianus; acute, oral, diet, mortality
  LC50: > 980 mg/kg-day
Colinus virginianus; acute, oral, mortality
  LD50: > 2000 mg/kg-day
Colinus virginianus; reproduction developmental, reproduction
  NOAEL: 94 mg/kg-day
Rattus norvegicus; acute, oral, mortality
  LD50: > 2000 mg/kg-day
Rattus norvegicus; chronic, duration: 2 years, hematological
  NOAEL: 7.25 mg/kg-day
Rattus norvegicus; reproduction developmental, hematological
  NOAEL: 64.1 mg/kg-day
Rattus norvegicus; subchronic, duration: 90 days, oral, organ weight
  NOAEL: 17.9 mg/kg-day
